Drawing on ChEMBL document CHEMBL5727723, “(S)-5-ethynyl-anabasine, derivatives thereof, and related compositions and methods of making and using” (2020), this text covers EC50 for four molecules.

pEC50: −log10 of the molar value.

The nature of this assay: functional assay: Nematode eggs are isolated from fresh feces by centrifugation and flotation. The eggs are washed and inspected to confirm embryonation has not started. Each sample is tested at six concentrations of a test compound (e.g., 0.02, 0.05, 0.1, 0.25, 0.5 and 1.0 μg/ml) and a negative control (no compound). After incubation for 48 h, the assay is ended, and all eggs and larvae present in each well are counted. The Hill equation with a variable slope is used to fit the dose-response relations using GraphPad Prism. The EC50-values and 95% confidence intervals are calculated.
Consider `CN1CCCC1c1ccc(N)nc1` (centres undefined), for which the negative-log EC50 (pEC50) was 4.91. On to `CN1C(=O)CC[C@H]1c1cccnc1` [COTININE], for which the negative-log EC50 (pEC50) is above 4.00. Consider `CN1CCCCC1c1cccnc1` (centres undefined), for which the pEC50 was above 4.00.

For the molecule `CN1CCC[C@H]1c1ccc[n+](C)c1`, the pEC50 is above 4.00.
